Source: ChEMBL document CHEMBL1154508, “Discovery of GSK345931A: An EP(1) receptor antagonist with efficacy in preclinical models of inflammatory pain” (Bioorg Med Chem Lett, 2009)

What was measured:
[1] = Drug level in brain of complete Freund's adjuvant-induced rat inflammatory pain model at 3 mg/kg, po after 1 hr; assay type: ADME, organism-based; set-up: dose 3 mg/kg, route oral; details: read-out: Drug uptake
[2] = target: T1, Prostaglandin E2 receptor EP1 subtype (Homo sapiens, UniProt P34995); experiment: Binding affinity to EP1 receptor
T1 sequence (P34995 whole entry): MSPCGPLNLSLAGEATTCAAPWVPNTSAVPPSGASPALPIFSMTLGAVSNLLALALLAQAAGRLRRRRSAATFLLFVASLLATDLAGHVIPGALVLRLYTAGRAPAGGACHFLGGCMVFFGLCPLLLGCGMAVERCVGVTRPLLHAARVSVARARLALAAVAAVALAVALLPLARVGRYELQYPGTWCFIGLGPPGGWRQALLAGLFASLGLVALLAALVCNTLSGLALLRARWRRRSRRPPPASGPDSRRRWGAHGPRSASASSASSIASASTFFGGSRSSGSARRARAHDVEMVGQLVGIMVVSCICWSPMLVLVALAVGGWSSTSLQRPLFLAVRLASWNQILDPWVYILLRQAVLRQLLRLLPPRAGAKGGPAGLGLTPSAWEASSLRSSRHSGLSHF

[3] = Solubility in simulated gastric fluid after 24 hrs; assay type: physicochemical
[4] = Drug level in brain of complete Freund's adjuvant-induced rat inflammatory pain model at 10 mg/kg, po after 1 hr; assay type: ADME, organism-based; set-up: dose 10 mg/kg, route oral; details: read-out: Drug uptake
[5] = Drug level in blood of sub-chronic rat joint pain efficacy model satellite animal group at 5 mg/kg bid measured on day 5 after 1 hr post dose; assay type: ADME, organism-based; set-up: dose 5 mg/kg; details: read-out: Drug uptake
[6] = Ratio of drug level in brain to blood of sub-chronic rat joint pain efficacy model treatment group at 20 mg/kg bid measured on day 5 after 1 hr post dose; assay type: ADME, organism-based; set-up: dose 20 mg/kg
[7] = Drug level in blood of complete Freund's adjuvant-induced rat inflammatory pain model at 2 mg/kg, po after 1 hr; assay type: ADME, organism-based; set-up: dose 2 mg/kg, route oral; details: read-out: Drug uptake
[8] = Volume of distribution at steady state in cynomolgus monkey at 1 mg/kg, iv; assay type: ADME, organism-based, Macaca fascicularis; set-up: dose 1 mg/kg, route intravenous; details: in vivo, read-out: Vdss
[9] = Blood clearance in rat at 1 mg/kg, iv; assay type: ADME, organism-based; set-up: dose 1 mg/kg, route intravenous
[10] = target: T2, Prostaglandin E2 receptor EP3 subtype (Homo sapiens, UniProt P43115); experiment: Activity at EP3 receptor by FLIPR method
T2 sequence (P43115 whole entry): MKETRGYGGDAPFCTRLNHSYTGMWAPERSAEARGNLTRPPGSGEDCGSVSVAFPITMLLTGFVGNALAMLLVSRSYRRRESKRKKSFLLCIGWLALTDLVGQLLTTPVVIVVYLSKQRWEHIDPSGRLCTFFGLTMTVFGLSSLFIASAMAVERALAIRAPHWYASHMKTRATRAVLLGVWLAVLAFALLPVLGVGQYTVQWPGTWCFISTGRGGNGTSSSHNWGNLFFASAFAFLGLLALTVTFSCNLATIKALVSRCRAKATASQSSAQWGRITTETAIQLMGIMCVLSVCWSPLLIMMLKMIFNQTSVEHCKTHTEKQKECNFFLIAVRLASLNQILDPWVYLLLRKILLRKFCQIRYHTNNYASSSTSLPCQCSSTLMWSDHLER

[11] = Drug level in blood of sub-chronic rat joint pain efficacy model satellite animal group at 20 mg/kg bid measured on day 5 after 1 hr post dose; assay type: ADME, organism-based; set-up: dose 20 mg/kg; details: read-out: Drug uptake
[12] = Ratio of drug level in brain to blood in complete Freund's adjuvant-induced rat inflammatory pain model at 2 mg/kg, po after 1 hr; assay type: ADME, organism-based; set-up: dose 2 mg/kg, route oral
[13] = Drug level in brain of sub-chronic rat joint pain efficacy satellite animal group model at 5 mg/kg bid measured on day 5 after 1 hr post dose; assay type: ADME, organism-based; set-up: dose 5 mg/kg; details: read-out: Drug uptake
[14] = Drug level in rat blood at 0.28 mg/kg/hr, iv for 18 hrs; assay type: ADME, organism-based; set-up: route intravenous; details: read-out: Drug uptake
[15] = Steady state blood clearance in rat at 0.28 mg/kg/hr, iv for 18 hrs; assay type: ADME, organism-based; set-up: route intravenous
[16] = target: Voltage-gated inwardly rectifying potassium channel KCNH2 (Homo sapiens, UniProt Q12809); experiment: Displacement of [3H]dofetilide from human ERG receptor
Sequence of Voltage-gated inwardly rectifying potassium channel KCNH2 (Q12809 whole entry): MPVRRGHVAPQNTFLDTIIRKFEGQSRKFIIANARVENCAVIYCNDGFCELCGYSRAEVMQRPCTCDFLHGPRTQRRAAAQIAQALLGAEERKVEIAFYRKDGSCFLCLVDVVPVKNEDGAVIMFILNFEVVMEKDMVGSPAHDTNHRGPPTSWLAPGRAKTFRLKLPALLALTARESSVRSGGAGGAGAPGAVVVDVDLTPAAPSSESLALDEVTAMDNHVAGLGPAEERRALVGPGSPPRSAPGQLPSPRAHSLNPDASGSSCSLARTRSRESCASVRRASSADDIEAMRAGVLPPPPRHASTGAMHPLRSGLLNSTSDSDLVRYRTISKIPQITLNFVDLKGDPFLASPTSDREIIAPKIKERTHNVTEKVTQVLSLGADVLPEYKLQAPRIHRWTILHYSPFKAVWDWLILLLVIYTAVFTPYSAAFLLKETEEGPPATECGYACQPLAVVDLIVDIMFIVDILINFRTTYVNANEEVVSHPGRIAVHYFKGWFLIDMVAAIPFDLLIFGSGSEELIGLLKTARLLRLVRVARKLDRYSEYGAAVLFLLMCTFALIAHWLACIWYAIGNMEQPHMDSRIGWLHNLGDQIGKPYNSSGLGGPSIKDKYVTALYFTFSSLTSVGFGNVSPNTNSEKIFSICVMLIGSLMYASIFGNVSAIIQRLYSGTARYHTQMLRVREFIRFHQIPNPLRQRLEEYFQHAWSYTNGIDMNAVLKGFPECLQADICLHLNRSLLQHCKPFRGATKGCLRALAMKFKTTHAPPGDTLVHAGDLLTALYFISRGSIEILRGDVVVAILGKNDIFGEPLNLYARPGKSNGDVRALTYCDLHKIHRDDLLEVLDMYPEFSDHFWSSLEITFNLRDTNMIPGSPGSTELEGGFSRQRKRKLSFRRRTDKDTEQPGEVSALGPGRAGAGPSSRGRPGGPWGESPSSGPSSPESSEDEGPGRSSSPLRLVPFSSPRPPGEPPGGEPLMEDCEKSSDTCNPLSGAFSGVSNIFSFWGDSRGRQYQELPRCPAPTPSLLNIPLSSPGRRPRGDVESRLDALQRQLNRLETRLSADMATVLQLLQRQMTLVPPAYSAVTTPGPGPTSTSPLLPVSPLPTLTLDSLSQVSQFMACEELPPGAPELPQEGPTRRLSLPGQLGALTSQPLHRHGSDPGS

[17] = Drug level in mouse brain at 3 mg/kg, po after 0.5 hrs; assay type: ADME, organism-based; set-up: dose 3 mg/kg, route oral; details: read-out: Drug uptake
[18] = target: T3, Peroxisome proliferator-activated receptor delta (Homo sapiens, UniProt Q03181); experiment: Activity at PPARdelta
T3 sequence (Q03181 whole entry): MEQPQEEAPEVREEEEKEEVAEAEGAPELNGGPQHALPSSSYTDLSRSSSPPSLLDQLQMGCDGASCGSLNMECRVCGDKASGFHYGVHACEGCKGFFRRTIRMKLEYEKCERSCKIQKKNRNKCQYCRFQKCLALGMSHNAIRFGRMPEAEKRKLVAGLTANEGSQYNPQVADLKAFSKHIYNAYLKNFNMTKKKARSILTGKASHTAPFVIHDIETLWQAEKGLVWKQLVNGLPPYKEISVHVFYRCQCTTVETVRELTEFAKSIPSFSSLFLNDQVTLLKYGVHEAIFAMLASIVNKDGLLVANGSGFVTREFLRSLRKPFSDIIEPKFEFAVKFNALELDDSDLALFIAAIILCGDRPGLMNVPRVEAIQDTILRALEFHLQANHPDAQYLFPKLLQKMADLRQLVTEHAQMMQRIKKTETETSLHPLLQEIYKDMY

[19] = Drug level in brain of sub-chronic rat joint pain efficacy model treatment group at 5 mg/kg bid measured on day 5 after 1 hr post dose; assay type: ADME, organism-based; set-up: dose 5 mg/kg; details: read-out: Drug uptake
[20] = target: T4, Prostaglandin E2 receptor EP1 subtype (Rattus norvegicus, UniProt P70597); experiment: Binding affinity to rat EP1 receptor
T4 sequence (P70597 whole entry): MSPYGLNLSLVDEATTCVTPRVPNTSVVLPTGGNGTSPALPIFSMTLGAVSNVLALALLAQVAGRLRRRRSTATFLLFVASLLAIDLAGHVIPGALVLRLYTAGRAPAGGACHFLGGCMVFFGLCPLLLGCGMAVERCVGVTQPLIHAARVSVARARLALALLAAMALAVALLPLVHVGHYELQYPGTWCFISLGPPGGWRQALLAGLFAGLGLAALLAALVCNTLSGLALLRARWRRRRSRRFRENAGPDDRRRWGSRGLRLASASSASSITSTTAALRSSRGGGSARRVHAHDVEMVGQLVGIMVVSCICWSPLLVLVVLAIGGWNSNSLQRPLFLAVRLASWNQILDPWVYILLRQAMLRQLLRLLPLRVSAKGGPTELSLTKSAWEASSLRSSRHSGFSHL

[21] = Volume of distribution at steady state in rat at 1 mg/kg, iv; assay type: ADME, organism-based; set-up: dose 1 mg/kg, route intravenous; details: in vivo, read-out: Vdss
[22] = target: Prostaglandin F2-alpha receptor (Homo sapiens, UniProt P43088); experiment: Activity at PGF2alpha receptor by FLIPR method
Sequence of Prostaglandin F2-alpha receptor (P43088 whole entry): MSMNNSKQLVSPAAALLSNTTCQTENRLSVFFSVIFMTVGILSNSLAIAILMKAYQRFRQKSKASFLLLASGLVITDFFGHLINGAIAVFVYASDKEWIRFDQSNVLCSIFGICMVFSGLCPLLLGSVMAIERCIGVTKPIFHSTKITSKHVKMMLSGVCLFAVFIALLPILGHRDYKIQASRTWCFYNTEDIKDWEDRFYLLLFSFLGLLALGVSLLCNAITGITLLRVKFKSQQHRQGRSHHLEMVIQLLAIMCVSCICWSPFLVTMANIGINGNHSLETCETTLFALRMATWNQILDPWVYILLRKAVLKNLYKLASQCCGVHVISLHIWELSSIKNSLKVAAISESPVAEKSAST

[23] = Solubility in fasted state simulated intestinal fluid after 24 hrs; assay type: physicochemical
[24] = target: T1, Prostaglandin E2 receptor EP1 subtype; experiment: Binding affinity to human EP1 receptor
[25] = Solubility in fasted state simulated intestinal fluid after 2 hrs; assay type: physicochemical
[26] = Aqueous solubility in water after 24 hrs; assay type: physicochemical
[27] = Drug level in brain of complete Freund's adjuvant-induced rat inflammatory pain model at 1 mg/kg, po after 1 hr; assay type: ADME, organism-based; set-up: dose 1 mg/kg, route oral; details: read-out: Drug uptake
[28] = Drug level in brain of sub-chronic rat joint pain efficacy model treatment group at 20 mg/kg bid measured on day 5 after 1 hr post dose; assay type: ADME, organism-based; set-up: dose 20 mg/kg; details: read-out: Drug uptake

## CC(C)COc1ccc(Cl)cc1-c1ccccc1-c1cccc(C(=O)[O-])n1.[Na+]
[1]
  concentration at 1 h: 1480 nM
[2]
  IC50: 15.8 nM
[3]
  solubility at 24 h: 11 µg/mL
[4]
  concentration at 1 h: 7260 nM
[5]
  concentration at 1 h: 1660 nM
[6]
  Kp at 1 h: 0.45
[7]
  concentration at 1 h: 2140 nM
[8]
  Vd: 0.5 L/kg
[9]
  clearance: 11 mL/min/kg
[10]
  Ki: 2000 nM
[11]
  concentration at 1 h: 6770 nM
[12]
  Kp at 1 h: 0.22
[13]
  concentration at 1 h: 822 nM
[14]
  concentration at 18 h: 1660 nM
[15]
  clearance: 8 mL/min/kg
[16]
  IC50: > 31600 nM
[17]
  concentration at 0.5 h: 277 nM
[18]
  EC50: > 10000 nM
[19]
  concentration at 1 h: 1070 nM
[20]
  IC50: 12.6 nM
[21]
  Vd: 1.9 L/kg
[22]
  IC50: > 10000 nM
[23]
  solubility at 24 h: 1050 µg/mL
[24]
  IC50: 16 nM
[25]
  solubility at 2 h: 1030 µg/mL
[26]
  solubility at 24 h: 612 µg/mL
[27]
  concentration at 1 h: 317 nM
[28]
  concentration at 1 h: 3210 nM
